Results published in patent US20070020334A1, “Benzimidazole formulation” (priority 2005, published 2007).
Read-outs that look alike come from different tables or passages of the source.

How the values were obtained:
[1] = cited from earlier work; for pKa2 / pKa3 / pKa: approximate; for pKa: pKa of the acid
[2] = Particle size by laser light scattering (Malvern); type: physicochemical; conditions: raw material of Table 7
Method: Samples have been dried for minimum 12 hours at 40° C. prior to the measurements.

In the case of `N=C(N)NCCC[C@H](N)C(=O)O` [Arginine], the pH ([1]; 100 g/L H2O) is listed as “pH≈11.4”, the pKa2 [1] is listed as “pKa2: 9.1” and the pKa3 [1] is listed as “pKa3: 13.2”.
In the case of `O=C([O-])[O-].[Ca+2]` [Calcium carbonate], the pKa [1] is listed as 10.3.
In the case of `O=C([O-])[O-].[Na+].[Na+]` [DiSodium carbonate], the pKa [1] is listed as 10.3.
For `N[C@@H](Cc1c[nH]cn1)C(=O)O` [Histidine], the pH ([1]; 10 g/L H2O) is given as “pH≈7.7” and the pKa3 [1] is given as “pKa3: 9.0”.
In the case of `NCCCC[C@H](N)C(=O)O` [Lysine], the pKa2 [1] is given as “pKa2: 8.9”.
In the case of `COc1ccnc(C[S+]([O-])c2nc3ccc(OC(F)F)cc3[nH]2)c1OC` (stereo not drawn) [Pantoprazole sodium sesquihydrate], the “D(v; 0.5)” value [2] is reported as 7 μm.
